Test results reported in PMC9415638, “Discovery of novel thiazolyl-pyrazolines as dual EGFR and VEGFR-2 inhibitors endowed with in vitro antitumor activity towards non-small lung cancer” (Journal of Enzyme Inhibition and Medicinal Chemistry, 2022).

What was measured:
SYK = SYK (Homo sapiens, UniProt P43405); test: Kinase selectivity profiling, Z'-LYTE FRET
CDK1 = CDK1 (Homo sapiens, UniProt P06493); test: Kinase selectivity profiling, Z'-LYTE FRET
HepG2 liver cancer cells = test: Anti-proliferative MTT assay; format: cell-based; details: Homo sapiens, 24 h, read-out: % Growth inhibition ± SEM HepG2
Procedure: (§1) To evaluate the anti-proliferative activity of the synthesised thiazolyl-pyrazoline derivatives (7a–7d, 10a–10d, and 13a–13f), a preliminary in vitro one dose (10 µM) anticancer assay was performed. Nine cell lines derived from five tumour subpanels were examined; leukaemia (K562 and KG-1a), breast (MCF-7, BT-549 and HCC70), lung (A549 and H441), colon (HCT116) and liver (HepG2) cancer cell lines. The compounds were added at a single concentration (10 µM) and the cultures were incubated for 24 h, then the per cent growth inhibition (%GI) was calculated.
(§2) Human leukaemia (K562 and KG-1a), breast (MCF-7, BT-549 and HCC70), lung (A549, H441, NCI-H1650 and NCI-H1975), colon (HCT116), liver (HepG2) cancer cell lines and WI-38 human lung fibroblast cell line were obtained from the American Type Culture Collection (ATCC; Manassas, VA) and were cultured in their suitable media containing 10% foetal bovine serum (FBS; Sigma-Aldrich) in a humidified atmosphere with 5% CO2 at 37 °C. Gefitinib and vandetanib were purchased from Sigma-Aldrich. All chemicals used in this study were analytical or cell-culture grade.
(§3) Cytotoxicity was measured using the MTT assay. Human leukaemia (K562 and KG-1a), breast (MCF-7, BT-549 and HCC70), lung (A549, H441, NCI-H1650 and NCI-H1975), colon (HCT116), liver (HepG2) cancer cell lines and WI-38 human lung fibroblast cell line were plated at a density of 1 × 10^4 cells per well in 96-well plates overnight and then treated with the compounds. After 24 h treatment, 20 μL of MTT solution (2 mg/mL in phosphate-buffered saline [PBS]) was added to each well and the cells were cultured for another 4 h at 37 °C. The medium was aspirated and 150 μL DMSO was added to solubilise MTT formazan crystals. The plates were then shaken, and the optical density was determined at 570 nm using an ELISA plate reader (Model 550, Bio-Rad, Hercules, CA). At least three independent experiments were performed. The IC50 values were calculated using GraphPad Prism 5 (Version 5.01, GraphPad Software, San Diego, CA).

[1] = tested on: HCT116 colon cancer cells; test: Anti-proliferative MTT assay; format: cell-based; details: Homo sapiens, HCT-116, 24 h, read-out: % Growth inhibition ± SEM HCT116
Procedure: as §1, §2, §3

K562 leukaemia cells = test: Anti-proliferative MTT assay; format: cell-based; details: Homo sapiens, 24 h, read-out: % Growth inhibition ± SEM K562
Procedure: as §1, §2, §3

KG-1a leukaemia cells = test: Anti-proliferative MTT assay; format: cell-based; details: Homo sapiens, 24 h, read-out: % Growth inhibition ± SEM KG-1a
Procedure: as §1, §2, §3

[2] = tested on: BT-549 breast cancer cells; test: Anti-proliferative MTT assay; format: cell-based; details: Homo sapiens, 24 h, read-out: % Growth inhibition ± SEM BT-549
Procedure: as §1, §2, §3

[3] = tested on: HCC70 breast cancer cells; test: Anti-proliferative MTT assay; format: cell-based; details: Homo sapiens, 24 h, read-out: % Growth inhibition ± SEM HCC70
Procedure: as §1, §2, §3

[4] = tested on: MCF-7 breast cancer cells; test: Anti-proliferative MTT assay; format: cell-based; details: Homo sapiens, MCF7, 24 h, read-out: % Growth inhibition ± SEM MCF-7
Procedure: as §1, §2, §3

ABL1 = ABL1 (Homo sapiens, UniProt P00519); test: Kinase selectivity profiling, Z'-LYTE FRET
ABL1, sequence (P00519 whole entry): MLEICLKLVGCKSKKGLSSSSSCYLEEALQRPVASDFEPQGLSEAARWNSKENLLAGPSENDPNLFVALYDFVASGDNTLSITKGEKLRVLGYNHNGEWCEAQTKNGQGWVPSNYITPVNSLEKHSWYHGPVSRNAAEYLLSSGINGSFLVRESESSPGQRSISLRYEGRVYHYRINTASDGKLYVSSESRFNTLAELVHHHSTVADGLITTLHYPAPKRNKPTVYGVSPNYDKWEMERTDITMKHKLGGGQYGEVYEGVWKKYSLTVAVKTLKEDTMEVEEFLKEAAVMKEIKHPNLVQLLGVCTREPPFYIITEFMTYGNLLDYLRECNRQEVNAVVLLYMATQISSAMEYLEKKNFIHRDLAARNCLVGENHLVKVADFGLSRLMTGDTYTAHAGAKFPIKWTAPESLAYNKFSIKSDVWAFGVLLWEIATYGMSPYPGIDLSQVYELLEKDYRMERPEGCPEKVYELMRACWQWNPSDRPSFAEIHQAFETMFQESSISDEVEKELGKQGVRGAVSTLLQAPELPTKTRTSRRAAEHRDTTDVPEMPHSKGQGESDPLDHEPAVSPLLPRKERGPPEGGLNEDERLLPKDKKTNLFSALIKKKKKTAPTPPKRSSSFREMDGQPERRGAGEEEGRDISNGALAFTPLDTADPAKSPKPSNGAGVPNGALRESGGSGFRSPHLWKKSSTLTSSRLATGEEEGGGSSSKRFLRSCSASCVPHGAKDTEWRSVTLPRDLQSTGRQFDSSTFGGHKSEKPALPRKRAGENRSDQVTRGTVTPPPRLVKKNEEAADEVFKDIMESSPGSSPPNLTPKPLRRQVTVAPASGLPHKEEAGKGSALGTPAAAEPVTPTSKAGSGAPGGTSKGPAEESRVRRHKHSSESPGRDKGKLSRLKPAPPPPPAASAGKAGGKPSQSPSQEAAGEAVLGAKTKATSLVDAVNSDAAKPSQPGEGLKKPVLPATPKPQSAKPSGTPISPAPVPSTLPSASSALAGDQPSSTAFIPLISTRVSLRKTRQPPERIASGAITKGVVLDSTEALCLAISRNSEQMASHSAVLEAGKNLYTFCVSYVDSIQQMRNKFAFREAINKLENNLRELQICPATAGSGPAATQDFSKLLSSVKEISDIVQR

H441 lung cancer cells = test: Anti-proliferative MTT assay; details: Homo sapiens, NCI-H441, 24 h; for inhibition at 10 µM: read-out: % Growth inhibition ± SEM H441; for IC50: read-out: IC50 (µM) ± SEM H441, MTT, 24 h, n = 3
CLK1 = CLK1 (Homo sapiens, UniProt P49759); test: Kinase selectivity profiling, Z'-LYTE FRET
CLK1, sequence (P49759 whole entry): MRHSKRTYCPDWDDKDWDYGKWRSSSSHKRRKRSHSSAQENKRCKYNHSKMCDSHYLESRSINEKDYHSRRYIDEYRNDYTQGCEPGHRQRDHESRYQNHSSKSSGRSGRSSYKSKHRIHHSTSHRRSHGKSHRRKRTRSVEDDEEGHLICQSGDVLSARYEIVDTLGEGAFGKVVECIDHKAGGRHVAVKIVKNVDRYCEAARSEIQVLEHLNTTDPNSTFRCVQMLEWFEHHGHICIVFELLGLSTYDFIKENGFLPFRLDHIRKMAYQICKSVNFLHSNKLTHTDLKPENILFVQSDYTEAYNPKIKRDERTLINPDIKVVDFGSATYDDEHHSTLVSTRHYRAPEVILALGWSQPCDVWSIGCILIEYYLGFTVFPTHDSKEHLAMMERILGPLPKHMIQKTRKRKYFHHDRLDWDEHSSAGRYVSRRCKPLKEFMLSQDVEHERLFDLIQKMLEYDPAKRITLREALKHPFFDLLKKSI

[5] = tested on: NCI-H1975 cells (EGFR L858R/T790M); test: MTT assay on EGFR-mutated NSCLC cells; format: cell-based; details: Homo sapiens, EGFR L858R/T790M double mutation
Procedure: (§4) All chemicals used in this study were analytical or cell-culture grade.
(§5) Cytotoxicity was measured using the MTT assay. […] The medium was aspirated and 150 μL DMSO was added to solubilise MTT formazan crystals. The plates were then shaken, and the optical density was determined at 570 nm using an ELISA plate reader (Model 550, Bio-Rad, Hercules, CA). At least three independent experiments were performed.

[6] = tested on: NCI-H1650 cells (EGFR exon19 deletion delE746-A750); test: MTT assay on EGFR-mutated NSCLC cells; format: cell-based; details: Homo sapiens
Procedure: as §4, §5

p-VEGFR-2 = test: Western blotting in A549 cells; format: cell-based, human; details: Western blot, vs untreated control
Source text: (§6) Figure 3. […] (B) The relative protein expression level of p-EGFR normalised with total EGFR was quantified by the Image J software (C) The relative protein expression level of p-VEGFR-2 normalised with total VEGFR-2. The values are expressed as the mean ± SEM based on three different experiments. ***p < 0.001 indicate a significant difference compared with control.
(§7) The protein extraction and quantification were done as previously described.

p-EGFR = test: Western blotting in A549 cells; format: cell-based, human; details: Western blot, vs untreated control
Source text: as §6, §7

AKT1 = AKT1 (Homo sapiens, UniProt P31749); test: Kinase selectivity profiling, Z'-LYTE FRET
AKT1, sequence (P31749 whole entry): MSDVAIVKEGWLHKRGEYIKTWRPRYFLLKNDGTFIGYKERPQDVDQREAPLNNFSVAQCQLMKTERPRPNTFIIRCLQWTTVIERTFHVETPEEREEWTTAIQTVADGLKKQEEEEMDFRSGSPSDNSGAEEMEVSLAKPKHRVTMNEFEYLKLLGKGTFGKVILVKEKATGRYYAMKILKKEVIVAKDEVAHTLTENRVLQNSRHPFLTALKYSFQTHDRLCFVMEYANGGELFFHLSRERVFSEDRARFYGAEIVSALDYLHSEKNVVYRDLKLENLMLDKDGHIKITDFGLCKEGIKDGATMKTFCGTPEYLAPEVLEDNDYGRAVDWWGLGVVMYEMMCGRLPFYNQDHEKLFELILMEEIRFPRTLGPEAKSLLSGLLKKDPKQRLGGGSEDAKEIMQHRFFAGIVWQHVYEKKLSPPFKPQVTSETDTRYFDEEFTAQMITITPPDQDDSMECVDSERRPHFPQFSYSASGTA

ROCK1 = ROCK1 (Homo sapiens, UniProt Q13464); test: Kinase selectivity profiling, Z'-LYTE FRET
ROCK1, sequence (Q13464 whole entry): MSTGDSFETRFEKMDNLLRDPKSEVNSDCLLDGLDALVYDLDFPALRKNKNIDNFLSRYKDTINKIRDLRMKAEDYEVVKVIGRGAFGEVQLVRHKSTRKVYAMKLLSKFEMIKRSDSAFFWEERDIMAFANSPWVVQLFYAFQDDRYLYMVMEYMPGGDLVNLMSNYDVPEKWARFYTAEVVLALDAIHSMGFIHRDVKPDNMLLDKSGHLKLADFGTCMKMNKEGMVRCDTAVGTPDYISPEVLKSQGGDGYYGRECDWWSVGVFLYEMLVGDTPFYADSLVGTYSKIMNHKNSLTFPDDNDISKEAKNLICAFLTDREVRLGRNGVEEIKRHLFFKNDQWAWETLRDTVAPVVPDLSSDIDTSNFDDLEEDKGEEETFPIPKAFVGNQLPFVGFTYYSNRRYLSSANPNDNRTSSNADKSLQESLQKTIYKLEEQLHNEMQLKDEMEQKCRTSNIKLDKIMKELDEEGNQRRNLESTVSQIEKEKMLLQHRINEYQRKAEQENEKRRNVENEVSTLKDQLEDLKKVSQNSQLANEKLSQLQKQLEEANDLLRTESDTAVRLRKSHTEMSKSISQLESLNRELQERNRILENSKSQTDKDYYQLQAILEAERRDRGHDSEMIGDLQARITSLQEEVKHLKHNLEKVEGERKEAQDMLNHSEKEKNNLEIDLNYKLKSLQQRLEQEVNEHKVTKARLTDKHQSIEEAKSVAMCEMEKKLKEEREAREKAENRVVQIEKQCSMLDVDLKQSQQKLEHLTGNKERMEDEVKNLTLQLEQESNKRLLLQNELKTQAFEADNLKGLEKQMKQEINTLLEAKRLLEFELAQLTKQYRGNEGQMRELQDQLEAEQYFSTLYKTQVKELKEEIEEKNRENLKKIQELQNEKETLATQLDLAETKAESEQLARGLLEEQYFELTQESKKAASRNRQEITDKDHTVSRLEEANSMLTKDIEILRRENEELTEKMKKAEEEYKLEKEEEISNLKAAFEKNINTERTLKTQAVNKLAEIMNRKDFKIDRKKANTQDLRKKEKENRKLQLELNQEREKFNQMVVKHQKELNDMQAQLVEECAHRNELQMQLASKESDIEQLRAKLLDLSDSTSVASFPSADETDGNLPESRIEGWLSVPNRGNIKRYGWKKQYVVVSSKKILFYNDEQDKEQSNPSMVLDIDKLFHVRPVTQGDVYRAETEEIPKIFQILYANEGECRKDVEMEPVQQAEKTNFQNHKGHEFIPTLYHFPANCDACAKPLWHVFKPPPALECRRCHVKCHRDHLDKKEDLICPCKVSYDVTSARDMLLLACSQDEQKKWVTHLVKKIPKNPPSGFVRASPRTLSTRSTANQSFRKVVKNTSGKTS

A549 cells = test: Cell cycle analysis by flow cytometry (7AAD); format: cell-based, human; details: A549, 24 h; untreated controls 6.06% and 5.93%
Procedure: Figure 6. […] (A) Representative cell cycle distribution data are shown by flow cytometric analysis upon incubation with 0 (control), 2.5 or 5 μM of 10b or 10d or with 0 (control), 5 or 20 μM of gefitinib for 24 h. (B) Quantification of cell cycle distribution upon 24 h incubation with 10b or 10d.
DNA content was measured using 7-aminoactinmycin D (7AAD) (Biotium, Inc., Hayward, CA) staining and is commonly used for cell cycle phase analysis as previously described. Apoptosis was evaluated using the annexin V/propidium iodide (PI) staining kit (BioLegend, San Diego, CA) according to the manufacturer’s instructions and as previously described.

CDK1, sequence (P06493 whole entry): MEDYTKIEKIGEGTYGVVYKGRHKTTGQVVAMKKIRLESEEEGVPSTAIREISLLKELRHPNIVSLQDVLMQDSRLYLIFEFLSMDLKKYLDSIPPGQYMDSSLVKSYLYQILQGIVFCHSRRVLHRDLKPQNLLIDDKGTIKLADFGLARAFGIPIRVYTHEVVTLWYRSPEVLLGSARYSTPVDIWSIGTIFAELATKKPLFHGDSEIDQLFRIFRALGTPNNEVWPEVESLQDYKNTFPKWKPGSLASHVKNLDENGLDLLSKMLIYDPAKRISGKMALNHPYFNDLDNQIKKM
CDK1, sequence (P14635 whole entry partner): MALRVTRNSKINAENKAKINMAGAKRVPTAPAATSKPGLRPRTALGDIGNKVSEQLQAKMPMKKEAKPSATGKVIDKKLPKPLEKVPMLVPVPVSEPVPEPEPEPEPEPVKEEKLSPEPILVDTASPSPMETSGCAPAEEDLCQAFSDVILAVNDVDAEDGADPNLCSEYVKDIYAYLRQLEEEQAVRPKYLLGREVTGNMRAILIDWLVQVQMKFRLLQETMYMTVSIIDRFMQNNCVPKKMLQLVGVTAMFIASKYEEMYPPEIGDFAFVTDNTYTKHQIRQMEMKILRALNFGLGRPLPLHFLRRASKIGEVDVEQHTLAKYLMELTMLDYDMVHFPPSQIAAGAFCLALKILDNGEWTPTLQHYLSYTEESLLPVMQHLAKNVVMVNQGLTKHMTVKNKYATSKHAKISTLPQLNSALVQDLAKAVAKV

SMILES	IC50 (SYK)	IC50 (CDK1)	inhibition at 10 µM (HepG2 liver cancer cells)	inhibition at 10 µM [1]	inhibition at 10 µM (K562 leukaemia cells)	inhibition at 10 µM (KG-1a leukaemia cells)	inhibition at 10 µM [2]	inhibition at 10 µM [3]	inhibition at 10 µM [4]	IC50 (ABL1)	inhibition at 10 µM (H441 lung cancer cells)	IC50 (H441 lung cancer cells)	IC50 (CLK1)	IC50 [5]	IC50 [6]	protein expression level of p-VEGFR-2 (p-VEGFR-2)	protein expression level of p-EGFR (p-EGFR)	IC50 (AKT1)	IC50 (ROCK1)	cells at G2/M phase (A549 cells)
COc1ccc(C2CC(c3ccc(Cl)cc3Cl)=NN2c2nc(C)c(C(=O)Nc3ccccc3)s2)cc1OC (stereo not shown) [Compound 10d, 2-(3-(2,4-Dichlorophenyl)-5-(3,4-dimethoxyphenyl)-4,5-dihydro-1H-pyrazol-1-yl)-4-methyl-N-phenylthiazole-5-carboxamide]	870 ± 31 nM	245 ± 7 nM	65.5 ± 3.9%	56.5 ± 2%	60.2 ± 2.3%	57.2 ± 3.4%	40.1 ± 2%	54.1 ± 2.8%	60.9 ± 4.3%	> 2000 nM	89.2 ± 3.9%	3.8 ± 0.5 µM	798 ± 19 nM	4.4 ± 0.6 µM	3.5 ± 0.2 µM	significantly downregulated	significantly downregulated	702 ± 24 nM	> 2000 nM	33.92%
CCOC(=O)c1sc(N2N=C(c3ccc(Cl)cc3Cl)CC2c2ccc(OC)cc2)nc1C (stereo not shown) [Compound 10b, Ethyl-2-(3-(2,4-dichlorophenyl)-5-(4-methoxyphenyl)-4,5-dihydro-1H-pyrazol-1-yl)-4-methylthiazole-5-carboxylate]	1120 ± 22 nM	310 ± 12 nM	50.6 ± 2.2%	37.7 ± 3.9%	54.2 ± 3.8%	31 ± 2.5%	47.2 ± 4.9%	41.5 ± 2.1%	48.5 ± 2.3%	> 2000 nM	79.1 ± 2.6%	4.8 ± 0.1 µM	1070 ± 54 nM	6.2 ± 0.9 µM	5.7 ± 0.5 µM	significantly downregulated	significantly downregulated	816 ± 38 nM	> 2000 nM	29.2%
